Laboratory results published in patent publication US8637237B2, “Methods, compositions, and systems for the identification of species-specific or developmental stage-specific insecticides” (The University of North Carolina at Greensboro, priority 2003, dated 2014).
“And” between values parts separate entries of the source, which are not always exact repeats. Equal values may be shown once.

Target: T1, FXR (Rattus norvegicus, UniProt Q62735)
T1 sequence (Q62735 1-469): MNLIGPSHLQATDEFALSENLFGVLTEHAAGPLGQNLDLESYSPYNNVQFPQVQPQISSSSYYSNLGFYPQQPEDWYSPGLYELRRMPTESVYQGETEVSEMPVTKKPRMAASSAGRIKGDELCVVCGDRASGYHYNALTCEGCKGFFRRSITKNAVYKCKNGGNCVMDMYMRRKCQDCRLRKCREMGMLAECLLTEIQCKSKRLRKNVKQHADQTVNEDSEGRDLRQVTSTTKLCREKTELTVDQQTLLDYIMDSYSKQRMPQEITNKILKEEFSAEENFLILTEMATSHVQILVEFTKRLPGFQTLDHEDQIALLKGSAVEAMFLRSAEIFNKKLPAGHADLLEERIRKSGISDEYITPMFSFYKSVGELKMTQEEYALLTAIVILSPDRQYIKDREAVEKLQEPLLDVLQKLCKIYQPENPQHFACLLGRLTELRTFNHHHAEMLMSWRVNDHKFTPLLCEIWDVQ
T1 sequence (P28700 1-467 partner): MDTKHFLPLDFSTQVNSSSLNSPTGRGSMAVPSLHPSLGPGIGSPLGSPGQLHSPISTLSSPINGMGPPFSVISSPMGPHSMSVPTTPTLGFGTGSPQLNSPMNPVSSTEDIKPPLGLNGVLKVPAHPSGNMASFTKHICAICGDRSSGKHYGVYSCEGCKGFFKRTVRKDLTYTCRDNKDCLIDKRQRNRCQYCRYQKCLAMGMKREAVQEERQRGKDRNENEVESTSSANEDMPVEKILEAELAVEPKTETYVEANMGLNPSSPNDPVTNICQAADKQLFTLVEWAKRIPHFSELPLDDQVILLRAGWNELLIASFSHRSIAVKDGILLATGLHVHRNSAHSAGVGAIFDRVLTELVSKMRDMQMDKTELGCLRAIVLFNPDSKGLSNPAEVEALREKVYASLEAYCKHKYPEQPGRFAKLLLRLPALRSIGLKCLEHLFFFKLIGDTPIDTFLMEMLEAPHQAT
Assay: cell-based
Settings: for FXR-dependent CAT activity, induction: 50 μM
How it was run: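 CHO cells co-transfected with FXR, mouse RXRα and a (EcRE)5-ΔMTV-CAT reporter, with β-galactosidase for normalization. An RXR-dependent CRBPII-CAT reporter was run in parallel. Cells were exposed to candidate juvenoids for 24 h; CAT activity normalized to β-gal and expressed as fold induction over vehicle controls.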

[1] = final dose of 50 ∝M, 1 = induction less than 2-fold below cytotoxic doses

Row | Molecule | FXR-dependent activity, induction (dose not stated) | FXR ACTIVITY (fold-induction) [1] [fold-induction] | FXR-dependent CAT activity, induction | other results
1 | CC(C)(O)CC[C@@H](O)[C@](C)(O)[C@H]1CC[C@@]2(O)C3=CC(=O)[C@@H]4C[C@@H](O)[C@@H](O)C[C@]4(C)[C@H]3CC[C@]12C [20E, 20-hydroxyecdysone] | unresponsive |  |  | 
2 | COC(=O)/C=C(\C)CC/C=C(\C)CC[C@H]1OC1(C)C [JHIII, juvenile hormone III] |  | 20 |  | dose that elicits FXR-dependent activity in the CHO assay: 2 µM; FXR-dependent CAT activity, induction (listed as JH III): 15 fold; FXR-dependent CAT activity, induction (listed as juvenile hormone III): 20 fold
3 | CC(C)=CCCC(C)=CCCC(C)=CC(=O)O [farnesoic acid] |  | 3 | 2 fold and 3 fold | 
4 | COC(=O)/C=C(\C)CC/C=C(\C)CCC=C(C)C [methyl farnesoate] |  |  | 6 fold | 
5 | CC(C)CC[C@@H](O)[C@](C)(O)[C@H]1CC[C@@]2(O)C3=CC(=O)[C@]4(O)C[C@@H](O)[C@@H](O)C[C@]4(C)[C@H]3[C@H](O)C[C@]12C [murA, muristerone A] | unresponsive |  |  | 
6 | juvocimene |  |  |  | FXR-dependent activity, induction (25 μM): 5 fold; FXR ACTIVITY (fold-induction) (dose 25 μM): 9 fold-induction; RXR mediated transcription, increase (plant-derived JH agonists examined as FXR effectors): 10 fold
